Where “and” joins values, the source holds several entries; their conditions need not be identical. Identical values can stand only once.
Assay: Dasatinib single oral gavage plasma pharmacokinetics (NLME modeling)
Assay type: in vivo, mouse
Design: DV (dasatinib plasma concentration): unit: ng/mL
Procedure: Dasatinib was dissolved in 80 mMol/L sodium citrate buffer pH 3.1 for a total dasatinib concentration of 1 mg/mL and a 10 mL/kg gavage volume. Mice were grouped by VD3 status and sex and studied at 8 and 10 weeks of age. […] Saphenous and submandibular bleeds of mice using a single-use Sarstedt Minivette POCT 50 μL K3 EDTA capillary device are humane methods for obtaining small volumes of blood over multiple time points, preferrable to retroorbital bleeds, and were approved for this study that required blood sampling at multiple time points (three) after dasatinib administration. Each mouse was sampled three times on two separate dasatinib dosing occasions. Blood was collected into the Minivette capillary device, dispensed into a microtube and vortexed to mix the anticoagulant. The tubes were then immediately centrifuged to plasma and stored on dry ice for the remainder of the study. At the end of the in vivo procedures, plasma samples were transferred from dry ice and placed at -80°C until analysis.
Total plasma dasatinib concentrations were assessed using a sensitive and specific liquid chromatography, tandem mass spectrometry (LC-MS/MS) assay. Dasatinib stock solutions were prepared in acetonitrile and used to spike matrix calibrators and quality controls. Protein precipitation was performed using a 1:4 ratio of plasma to 15 ng/mL erlotinib HCl (St. Jude Compound Management, S00004053, Inventory ID: SJCH0042996, Purity > 95%) in methanol as an internal standard. A 3μL aliquot of the extracted supernatant was injected onto a Shimadzu LC-20ADXR high performance liquid chromatography system via a LEAP CTC PAL autosampler. The LC separation was performed using a Phenomenex Kinetex 2.6 um EVO C18 (100A, 50 x 2.1 mm) maintained at 50°C with gradient elution at a flow rate of 0.5 mL/min. The binary mobile phase gradient began with a linear increase to 100% B in 4.0 minutes. The column was then rinsed for 2.0 minutes at 100% B and then equilibrated at the initial conditions for two minutes for a total run time of eight minutes.
Analyte and IS were detected with tandem mass spectrometry using a SCIEX API 5500 Q-TRAP in the positive ESI mode with monitoring of the following mass transitions: Dasatinib 488.20 -> 401.00, erlotinib HCl 394.20 -> 250.10.
The experimental bioanalytical runs were all found to be acceptable for the purpose of a singlicate non-GLP, preclinical PK assessment. A linear model (1/X^2 weighting) fit the calibrators across the 1.00 to 500 ng/mL range, with a correlation coefficient (R) of […]. The lower limit of quantification (LLOQ), defined as a peak area signal-to-noise ratio of 5 or greater verses a matric blank with IS, was 1.00 ng/mL.
§ To evaluate the plasma pharmacokinetics (PK) of dasatinib af t er two separate single oral gavage doses of solution, separated by a washout period, in normal C57BL/6 mice […]
vs 10wk) on the plasma PK of oral dasatinib us ing a nonlinear mixed effects (NLME) PK modeling […]
2. 1 In Vivo Pharmacokinetic (PK) Study
The total plasma PK of dasatinib in C57BL/6 mice (The Jackson Laboratory) was assessed after single oral gavages of 10 mg/kg of dasatinib free base equivalents. Dasatinib (St. Jude Compound […]
sodium citrate buffer pH 3.1 for a final dasatinib concentration of 1 mg/mL for a 10 mL/kg gavage volume.
Mice were grouped by Vitamin D dietary sufficiency status and sex, and studied at 8 and 10 weeks of age. Survival saphenous and facial vein bleeding of mice was conducted using IACUC-approved […]
was sampled 3 times on the 2 separate occasions of dasatinib dosing. […] The tubes were then immediately centrifuged to plasma, and stored on dry ice for […]

With `Cc1nc(Nc2ncc(C(=O)Nc3c(C)cccc3Cl)s2)cc(N2CCN(CCO)CC2)n1` [dasatinib] the “calculated Cgut” value (10 mg/kg into a gastric volume of 300–400 μL) was 1.5 mM, the “influence of VD3 status, sex, or age on oral dasatinib PK” value (10 mg/kg oral gavage, 8 wk vs 10 wk) was “no influence” and the Q pop (Base Model) was 19.5 mL/min/kg. The V1 pop (apparent volume of central compartment) (Base Model) was 12.7 L/kg, the V2 pop (Base Model) was 11.1 L/kg and the “omega_Cl (inter-individual variability)” value (Base Model) was 0.294 %CV. For the same compound, the “omega_V1 (inter-individual variability)” value (Base Model) was 0.465 %CV, the Tk0 pop (Base Model, 10 mg/kg oral gavage, zero order absorption duration) was 1.29 h and the Q pop (Final Model) was 21 mL/min/kg. For the same compound, the V1 pop (Final Model) was 12.2 L/kg, the V2 pop (Final Model) was 11.2 L/kg and the omega_Cl (Final Model) was 0.287 %CV. For the same compound, the omega_V1 (Final Model) was 0.477 %CV, the Tk0 pop (Final Model (VD3 status and sex covariates on Cl)) was 1.33 h and the “DV (dasatinib plasma concentration)” value (GROUP:VD3 Def, SEX:F, OCC 1, time 0.5) was 206.1 and 158.35. The “DV (dasatinib plasma concentration)” value (GROUP:VD3 Def, SEX:F, OCC 1, time 1) was 457.04 and 404.1, the “DV (dasatinib plasma concentration)” value (GROUP:VD3 Def, SEX:F, OCC 1, time 2) was > 500 and 323.65 and the “DV (dasatinib plasma concentration)” value (GROUP:VD3 Def, SEX:F, OCC 1, time 8) was 33.172 and 43.592. The “DV (dasatinib plasma concentration)” value (GROUP:VD3 Def, SEX:F, OCC 1, time 16) was 2.7889 and 2.9067, the “DV (dasatinib plasma concentration)” value (GROUP:VD3 Def, SEX:F, OCC 2, time 0.125) was 29.279 and 44.718 and the “DV (dasatinib plasma concentration)” value (GROUP:VD3 Def, SEX:F, OCC 2, time 0.25) was 240.93 and 155.4. For the same compound, the “DV (dasatinib plasma concentration)” value (GROUP:VD3 Def, SEX:F, OCC 2, time 0.5) was 128.51 and 161.37, the “DV (dasatinib plasma concentration)” value (GROUP:VD3 Def, SEX:F, OCC 2, time 16) was 6.2042 and 7.8308 and the “DV (dasatinib plasma concentration)” value (GROUP:VD3 Def, SEX:M, OCC 1, time 0.25) was 143.39 and 275.48. The “DV (dasatinib plasma concentration)” value (GROUP:VD3 Def, SEX:M, OCC 1, time 0.5) was 240.61 and 267.78, the “DV (dasatinib plasma concentration)” value (GROUP:VD3 Def, SEX:M, OCC 1, time 2) was 760.24 and the “DV (dasatinib plasma concentration)” value (GROUP:VD3 Def, SEX:M, OCC 1, time 4) was 99.618 and 81.306. For the same compound, the “DV (dasatinib plasma concentration)” value (GROUP:VD3 Def, SEX:M, OCC 1, time 8) was 11.773 and 10.821, the “DV (dasatinib plasma concentration)” value (GROUP:VD3 Def, SEX:M, OCC 1, time 24) was 7.0494 and 5.7321 and the “DV (dasatinib plasma concentration)” value (GROUP:VD3 Def, SEX:M, OCC 2, time 0.5) was 117.58 and 209.13. For the same compound, the “DV (dasatinib plasma concentration)” value (GROUP:VD3 Def, SEX:M, OCC 2, time 2) was 376.78 and > 500, the “DV (dasatinib plasma concentration)” value (GROUP:VD3 Def, SEX:M, OCC 2, time 4) was 62.561 and 70.903 and the “DV (dasatinib plasma concentration)” value (GROUP:VD3 Def, SEX:M, OCC 2, time 8) was 13.735 and 13.061. The “DV (dasatinib plasma concentration)” value (GROUP:VD3 Def, SEX:M, OCC 2, time 16) was 8.5466 and 7.4123, the “DV (dasatinib plasma concentration)” value (GROUP:VD3 Suf, SEX:F, OCC 1, time 0.25) was 244.67 and 197.71 and the “DV (dasatinib plasma concentration)” value (GROUP:VD3 Suf, SEX:F, OCC 1, time 0.5) was 144.41 and 217.29. The “DV (dasatinib plasma concentration)” value (GROUP:VD3 Suf, SEX:F, OCC 1, time 2) was 466.97 and > 500, the “DV (dasatinib plasma concentration)” value (GROUP:VD3 Suf, SEX:F, OCC 1, time 4) was 105.56 and 62.725 and the “DV (dasatinib plasma concentration)” value (GROUP:VD3 Suf, SEX:F, OCC 1, time 8) was 11.198 and 14.683. The “DV (dasatinib plasma concentration)” value (GROUP:VD3 Suf, SEX:F, OCC 1, time 16) was 1.9898 and 3.161, the “DV (dasatinib plasma concentration)” value (GROUP:VD3 Suf, SEX:F, OCC 2, time 0.5) was 124.69 and 151.83 and the “DV (dasatinib plasma concentration)” value (GROUP:VD3 Suf, SEX:F, OCC 2, time 2) was 295.49 and 395.48. The “DV (dasatinib plasma concentration)” value (GROUP:VD3 Suf, SEX:F, OCC 2, time 4) was 72.682 and 42.565, the “DV (dasatinib plasma concentration)” value (GROUP:VD3 Suf, SEX:F, OCC 2, time 16) was 9.1881 and 6.2417 and the “DV (dasatinib plasma concentration)” value (GROUP:VD3 Suf, SEX:M, OCC 1, time 0.125) was 35.897 and 45.322. The “DV (dasatinib plasma concentration)” value (GROUP:VD3 Suf, SEX:M, OCC 1, time 0.25) was 87.715 and 117.65, the “DV (dasatinib plasma concentration)” value (GROUP:VD3 Suf, SEX:M, OCC 1, time 2) was > 500 and 483.94 and the “DV (dasatinib plasma concentration)” value (GROUP:VD3 Suf, SEX:M, OCC 1, time 4) was 103.68 and 89.88.

Source: paper PMC8528301 (PLoS ONE, 2021)
